Results taken from patent US11939318B2, “LPA receptor antagonists and uses thereof” (Gilead Sciences, Inc., priority 2021, dated 2024).

These molecules were tested against T1, human LPAR1 (Homo sapiens, UniProt Q92633) (assay: LPAR1 intracellular calcium mobilization assay (antagonist mode, CHO-K1 EDG2 cells, FLIPR)). Conditions: antagonist activity; CHO-K1 EDG2 cells expressing human LPAR1; 60 min pre-incubation at 37° C., then LPA 18:2 at EC80 concentration (100 nM); test compound 0.5 nM to 10 μM; read-out: LPAR1 (EC50; nM).
T1 construct: host or cells: CHO-K1
T1 sequence (Q92633 whole entry): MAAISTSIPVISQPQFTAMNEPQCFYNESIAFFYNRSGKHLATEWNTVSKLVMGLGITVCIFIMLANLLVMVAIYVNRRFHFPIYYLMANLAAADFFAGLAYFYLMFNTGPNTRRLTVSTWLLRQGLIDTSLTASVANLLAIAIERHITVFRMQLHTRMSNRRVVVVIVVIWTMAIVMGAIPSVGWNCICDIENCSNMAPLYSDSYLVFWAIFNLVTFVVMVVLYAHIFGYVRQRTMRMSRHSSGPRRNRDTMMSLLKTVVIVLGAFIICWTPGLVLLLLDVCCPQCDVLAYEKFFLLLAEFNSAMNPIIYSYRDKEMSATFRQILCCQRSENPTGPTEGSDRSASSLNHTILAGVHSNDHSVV
Assay type: cell-based
Experimental: In vitro LPAR1 activity was measured in an intracellular calcium mobilization assay.
CHO-K1 EDG2 cells (DiscoverX cat #93-0644C2) expressing human LPAR1 (NM_001401.3) were seeded in a total volume of 25 μL of Dulbecco's Modification of Eagle's Medium (DMEM) with 10% Fetal Bovine Serum, 1× PenStrepGlutamine, 300 μg/ml Hygromycin, and 800 μg/ml G418 into 384-well tissue culture plate (Grenier #781091) at 15,000 cells/well and incubated at 37° C. overnight. Prior to testing, 25 μL Calcium Loading Dye Component A (FLIPR Calcium 6 Assay Kit Molecular Device #R8190) and 2.5 mM Probenecid (Invitrogen #P36400, prepared fresh) in Hank's Balanced Salt Solution (Corning #21-023-CV), 20 mM HEPES (Corning #25-060-CI), 0.1% Bovine Serum Albumin (Sigma-Aldrich #A7906-500G) was add to the cells for 60 minutes at 37° C.
Agonist dose curves of LPA 18:2 (Avanti Polar Lipids cat #857138, 0.5 nM to 10 μM) were recorded to determine the LPA 18:2 EC80 for subsequent antagonist assays. For agonist dose curves, cells were removed from the incubator 2 hours after dye loading and transferred to the FLIPR Tetra instrument (Molecular Devices, San Jose, CA). Calcium mobilization was monitored for […] and 10 μL 6× LPA in HBSS/20 mM Hepes/0.1% bovine serum albumin (BSA) was added to the cells 5 seconds into the assay.
To determine the LPAR1 antagonist activity of test compounds, cells were pre-incubated with test compound at a dose range of 0.5 nM to 10 μM, followed by LPA at EC80 concentration (100 nM). After dye loading, cells were removed from the incubator and 0.3 μL of 200X antagonist was added. Cells were incubated for 60 minutes at 37° C. Antagonist activity was measured on a FLIPR Tetra. Calcium mobilization was monitored for 3.5 minutes and 10 μL 6X EC80 LPA in HBSS, 20 mM HEPES, and 0.1% BSA was added to the cells 5 seconds into the assay. Signal amplitude (Maximum minus minimum) values were plotted against log10 of antagonist concentration using Dose Response Tool (Gilead Sciences Inc.) to determine EC50.
The compound numbers correspond to the compound numbers in Examples 1 to13.

Compared with `C[C@@H](OC(=O)Nc1c(-c2ccc(NC(=O)C(F)(F)F)cn2)nnn1C)c1cccc(F)c1` [Compound 1, (R)-1-(3-fluorophenyl)ethyl (1-methyl-4-(5-(2,2,2-trifluoroacetamido)pyridin-2-yl)-1H-1,2,3-triazol-5-yl)carbamate], `CC(=O)Nc1ccc(-c2nnn(C)c2NC(=O)O[C@H](C)c2cc(F)cnc2F)nc1` [Compound 12, (R)-1-(2,5-difluoropyridin-3-yl)ethyl (4-(5-acetamidopyridin-2-yl)-1-methyl-1H-1,2,3-triazol-5-yl)carbamate] is 5.9-fold higher in IC50: 345 nM for the first, 2050 nM for the second.

Going from `CC(=O)Nc1ccc(-c2nnn(C)c2NC(=O)O[C@H](CF)c2cccc(F)c2)nc1C` [Compound 2, (S)-2-fluoro-1-(3-fluorophenyl)ethyl (4-(5-acetamido-6-methylpyridin-2-yl)-1-methyl-1H-1,2,3-triazol-5-yl)carbamate] to `Cc1nc(-c2nnn(C)c2NC(=O)O[C@H](C)c2cc(F)cnc2F)ccc1NC(=O)C1(CN)CC(F)(F)C1` [Compound 9, (R)-1-(2,5-difluoropyridin-3-yl)ethyl (4-(5-(1-(aminomethyl)-3,3-difluorocyclobutane-1-carboxamido)-6-methylpyridin-2-yl)-1-methyl-1H-1,2,3-triazol-5-yl)carbamate], the IC50 falls from 37000 nM to 34 nM (1100-fold). The second is the more potent here.

Going from `C[C@@H](OC(=O)Nc1c(-c2ccc(NC(=O)C3(O)CC3)cn2)nnn1C)c1cccnc1Cl` [Compound 3, (R)-1-(2-chloropyridin-3-yl)ethyl (4-(5-(1-hydroxycyclopropane-1-carboxamido)pyridin-2-yl)-1-methyl-1H-1,2,3-triazol-5-yl)carbamate] to `COC1(C(=O)Nc2ccc(-c3nnn(C)c3NC(=O)O[C@H](C)c3cccnc3Cl)nc2)CC1` [Compound 4, (R)-1-(2-chloropyridin-3-yl)ethyl (4-(5-(1-methoxycyclopropane-1-carboxamido)pyridin-2-yl)-1-methyl-1H-1,2,3-triazol-5-yl)carbamate], the IC50 falls from 2770 nM to 1260 nM (2.2-fold). The second is the more potent here.

`C[C@@H](OC(=O)Nc1c(-c2ccc(NC(=O)C3(C#N)CC3)c(Cl)n2)nnn1C)c1cc(F)cnc1F` [Compound 5, (R)-1-(2,5-difluoropyridin-3-yl)ethyl (4-(6-chloro-5-(1-cyanocyclopropane-1-carboxamido)pyridin-2-yl)-1-methyl-1H-1,2,3-triazol-5-yl)carbamate] and `Cc1nc(-c2nnn(C)c2NC(=O)O[C@H](C)c2cc(F)cnc2F)ccc1NC(=O)c1cnc(C2CC2)o1` [Compound 7, (R)-1-(2,5-difluoropyridin-3-yl)ethyl (4-(5-(2-cyclopropyloxazole-5-carboxamido)-6-methylpyridin-2-yl)-1-methyl-1H-1,2,3-triazol-5-yl)carbamate] are within 1.5-fold of each other in IC50: 186 nM for the first, 261 nM for the second.

Compared with `C[C@@H](OC(=O)Nc1c(-c2ccc(NC(=O)c3ccc(C4CC4)nc3)cn2)nnn1C)c1cc(F)cnc1F` [Compound 6, (R)-1-(2,5-difluoropyridin-3-yl)ethyl (4-(5-(6-cyclopropylnicotinamido)pyridin-2-yl)-1-methyl-1H-1,2,3-triazol-5-yl)carbamate], `C[C@@H](OC(=O)Nc1c(-c2ccc(NC(=O)c3ccc(C45CC(C4)C5)cc3)cn2)nnn1C)c1cc(F)cnc1F` [Compound 11, (R)-1-(2,5-difluoropyridin-3-yl)ethyl (4-(5-(4-(bicyclo[1.1.1]pentan-1-yl)benzamido)pyridin-2-14)-1-methyl-1H-1,2,3-triazol-5-yl)carbamate] is 2.1-fold higher in IC50: 176 nM for the first, 365 nM for the second. The first is the more potent here.

Going from `C[C@@H](OC(=O)Nc1c(-c2ccc(NC(=O)c3cnc(-c4cccc(Cl)c4)nc3)cn2)nnn1C)c1cc(F)cnc1F` [Compound 8, (R)-1-(2,5-difluoropyridin-3-yl)ethyl (4-(5-(2-(3-chlorophenyl)pyrimidine-5-carboxamido)pyridin-2-yl)-1-methyl-1H-1,2,3-triazol-5-yl)carbamate] to `C[C@@H](OC(=O)Nc1c(-c2ccc(NC(=O)C34CC(c5ccccc5)(C3)C4)cn2)nnn1C)c1cc(F)cnc1F` [Compound 10, (R)-1-(2,5-difluoropyridin-3-yl)ethyl (1-methyl-4-(5-(3-phenylbicyclo[1.1.1]pentane-1-carboxamido)pvidin-2-yl)-1H-1,2,3-triazol-5-yl)carbamate], the IC50 falls from 22 nM to 13 nM (1.7-fold).

With `C[C@@H](OC(=O)Nc1c(-c2ccc(NC(=O)C34CC(OS(C)(=O)=O)(C3)C4)cn2)nnn1C)c1cccnc1Cl` [Compound 13, (R)-3-((6-(5-(((1-(2-chloropyridin-3-yl)ethoxy)carbonyl)amino)-1-methyl-1H-1,2,3-triazol-4-yl)pyridin-3-yl)carbamoyl)bicyclo[1.1.1]pentan-1-yl methanesulfonate] the IC50 was 152 nM.
